Reference: US11090285B2, “Treatment of circadian rhythm disorders” (Vanda Pharmaceuticals Inc., priority 2013, dated 2021)
Entries after “also recorded” stand apart in the source; their conditions may differ.

Assays:
[1] = Tasimelteon exposure with Rifampin (CYP3A4 inducer); assay type: in vivo, human; conditions: single 20 mg dose after 11 days of 600 mg Rifampin
Protocol: For example, when a single 20 mg dose of tasimelteon was administered after 11 days of the administration of 600 mg of Rifampin, tasimelteon mean exposure was reduced by approximately 89%. Therefore, in cases where an individual is co-administered a CYP3A4 inducer, the dose of tasimelteon administered may be greater than if administered alone or in the absence of a CYP3A4 inducer.

[2] = Tasimelteon exposure with ketoconazole (CYP3A4 inhibitor); assay type: in vivo, human; conditions: single 20 mg dose on fifth day of ketoconazole 400 mg per day vs tasimelteon alone
Protocol: Therefore, in cases where an individual is co-administered a CYP3A4 inhibitor, the dose of tasimelteon administered may be less than if administered alone or in the absence of a CYP3A4 inhibitor.
For example, a pharmaceutical composition providing a dosage equivalent to a daily dosage between about 5 mg and about 15 mg of tasimelteon may be co-administered with a […] inhibitor.

[3] = tmax after administration; parameters: species or system human; conditions: in vivo
Protocol: The ability to administer tasimelteon as little as about one hour prior to sleep time is advantageous because it allows for avoidance of pre-sleep time soporific effects, because it allows for administration of higher doses that might have greater soporific effects, and because it allows for pharmacologic intervention at a different phase of the sleep cycle than if it were administered earlier. Without wishing to be bound to any particular theory, it appears that the ability to administer tasimelteon so close to sleep time is a function of its tmax, which is approximately one-half hour. Melatonin, on the other hand, which has a tmax of approximately 2 hours or more, is administered several hours before sleep time, which can cause premature sleepiness; to avoid this soporific effect, melatonin is sometimes administered at sub-optimal doses.

[4] = Effect of smoking on pharmacokinetics of tasimelteon and metabolites; assay type: in vivo, human
Excerpt: Smokers were defined as those smoking 10 or more cigarettes per day. Non-smokers were defined as those smoking no cigarettes per day.

reduction of tasimelteon mean exposure [1]: approximately 89%
increase of tasimelteon exposure [2]: approximately 54%
CL/F ([4]; Non-Smokers): 1,482 ± 1,008 mL/min
CL/F ([4]; Smokers): 2,290 ± 1,232 mL/min
AUC (inf), Geometric Mean Ratio ([4]; Smokers vs Non-Smokers): 60.14%
CL/F, Geometric Mean Ratio ([4]; Smokers vs Non-Smokers): 166.27%
Cmax, Geometric Mean Ratio ([4]; Smokers vs Non-Smokers): 63.98%
Vz/F, Geometric Mean Ratio ([4]; Smokers vs Non-Smokers): 144.39%
t½, Geometric Mean Ratio ([4]; Smokers vs Non-Smokers): 86.84%
SMILES: CCC(=O)NC[C@@H]1C[C@H]1c1cccc2c1CCO2 (relative stereo) [Tasimelteon, trans-N-[[2-(2,3-dihydrobenzofuran-4-yl)cycloprop-1yl]methyl]propanamide]
Tmax [3]: approximately one-half; also recorded: about one-half
